Like-named read-outs stand apart in the source and are kept apart here.
How the values were obtained:
PLA2G16 = molecular target: T1, PLA2G16 (Homo sapiens, UniProt P53816); test: Enzyme activity assay for PLA2G16 (Red/Green BODIPY PC-A2 fluorescence); assay type: biochemical; conditions: His-tagged PLA2G16, 4 min pre-incubation, 2 nM to 50 μM; read-out: IC50 values of the compounds determined in the enzyme activity assay for PLA2G16
T1 construct: Hexa-His (N); made in house; host or cells: E. coli BL21(DE3)
T1 sequence (P53816 1-162): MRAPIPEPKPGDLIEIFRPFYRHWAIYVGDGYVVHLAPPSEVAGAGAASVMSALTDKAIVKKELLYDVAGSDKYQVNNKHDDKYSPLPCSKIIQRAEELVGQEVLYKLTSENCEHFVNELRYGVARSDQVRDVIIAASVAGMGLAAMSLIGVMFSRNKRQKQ
Method in brief: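 IC50 from non-linear fits of fluorescence rise (480/530 nm, 10 min) after adding Red/Green BODIPY PC-A2 mixed with DOPC/DOPG/cholesterol liposomes. Recombinant His-tagged human enzyme, bacterially expressed, was first exposed to inhibitor (2 nM–50 μM final) for 4 min in 50 mM Tris pH 8.5, 100 mM NaCl, 5 mM glutathione.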

[1] = system: picornaviruses (CVB1, HRV-A2, HRV-A23, EV-68); test: Anti-picornavirus cytopathic effect (CPE) reduction assay on HeLa H1 cells; assay type: cell-based; conditions: HeLa H1 cells, 48 h, category from averaging the EC50 values from four picornaviruses (CVB1, HRV-A2, HRV-A23, EV68), read-out: EC50 values of the compounds determined in the anti-picornavirus assay
Method in brief: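 Cytopathic-effect protection: EC50 from non-linear regression of cell viability (CellTiterBlue, 560/590 nm) 48 h post-infection, scaled between infected and mock-infected vehicle wells. Compound dilutions added to HeLa H1 cells 2 h before virus (MOI causing complete CPE within 2 days), in DMEM + 2% FBS; categories average the four viruses.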

Row | SMILES | IC50 (PLA2G16) [nM] | EC50 ([1]; Enterovirus B, HeLa H1, 48 h) [nM] | EC50 [1] [nM]
1 | CC(C)C(NC(=O)c1ccccc1)C(=O)C(=O)NCC1CC1 (stereo not shown) [FP 165, N-(Cyclopropylmethyl)-4-methyl-2-oxo-3-(phenylformamido)pentanamide] | < 1000 | > 10000 | –
2 | O=C(NC1CN(S(=O)(=O)C2CCCC2)C1)C(=O)[C@H]1CCC(=O)N1Cc1ccccc1 [FP 322, 2-[(2R)-1-Benzyl-5-oxopyrrolidin-2-yl]-N-[1-(cyclopentanesulfonyl)azetidin-3-yl]-2-oxoacetamide] | < 1000 | < 1000 | –
3 | CC(NS(=O)(=O)c1ccccc1)C(=O)C(=O)NCC1CCCCC1 (stereo not shown) [FP 218, 3-Benzenesulfonamido-N-(cyclohexylmethyl)-2-oxobutanamide] | < 1000 | 1000 to 10000 | –
4 | CC(C(=O)C(=O)NCC1CC1)N(C)C(=O)C1CCCCC1 (stereo not shown) [FP 150, 3-(1-Cyclohexyl-N-methylformamido)-N-(cyclopropylmethyl)-2-oxobutanamide] | < 1000 | 1000 to 10000 | –
5 | O=C(NC12CC(C1)C2)C(=O)[C@H]1CCC(=O)N1Cc1ccccc1 [FP 291, 2-[(2R)-1-Benzyl-5-oxopyrrolidin-2-yl]-N-{bicyclo[1.1.1]pentan-1-yl}-2-oxoacetamide] | < 1000 | < 1000 | –
6 | O=C(NC1CC1)C(=O)C1CCC(=O)N1Cc1ccc(Cl)c(F)c1 (stereo not shown) [FP 232, 2-{1-[(4-Chloro-3-fluorophenyl)methyl]-5-oxopyrrolidin-2-yl}-N-cyclopropyl-2-oxoacetamide] | < 1000 | 1000 to 10000 | –
7 | O=C(NC1CCN(C(=O)NC2CCC2)CC1)C(=O)[C@H]1CCC(=O)N1Cc1ccccc1 [FP 324, 4-{2-[(2R)-1-Benzyl-5-oxopyrrolidin-2-yl]-2-oxoacetamido}-N-cyclobutylpiperidine-1-carboxamide] | < 1000 | < 1000 | –
8 | N#CC1(CNC(=O)C(=O)[C@H]2CCC(=O)N2Cc2ccccc2)CC1 [FP 290, 2-[(2R)-1-Benzyl-5-oxopyrrolidin-2-yl]-N-[(1-cyanocyclopropyl)methyl]-2-oxoacetamide] | < 1000 | 1000 to 10000 | –
9 | COCCCN(C=O)C(CC(C)C)C(=O)C(=O)NCC1CC1 (stereo not shown) [FP 72, N-(Cyclopropylmethyl)-3-[N-(3-methoxypropyl)formamido]-5-methyl-2-oxohexanamide] | < 1000 | 1000 to 10000 | –
10 | CNC(=O)C(=O)[C@H]1CCC(=O)N1Cc1ccccc1 [FP 281, 2-[(2R)-1-Benzyl-5-oxopyrrolidin-2-yl]-N-methyl-2-oxoacetamide] | < 1000 | 1000 to 10000 | –
11 | CC1CC(=O)N(Cc2ccccc2)[C@@H]1C(=O)C(=O)NC1CC1 (single isomer, unassigned) [FP 339] | 1000 to 10000 | – | > 10000
12 | Cc1noc(CNC(=O)C(=O)[C@H]2CCC(=O)N2Cc2ccccc2)n1 [FP 287, 2-[(2R)-1-Benzyl-5-oxopyrrolidin-2-yl]-N-[(3-methyl-1,2,4-oxadiazol-5-yl)methyl]-2-oxoacetamide] | < 1000 | 1000 to 10000 | –
13 | CC(NC(=O)c1ccccc1F)C(=O)C(=O)NCC1CC1 (stereo not shown) [FP 164, N-(Cyclopropylmethyl)-3-[(2-fluorophenyl)formamido]-2-oxobutanamide] | < 1000 | 1000 to 10000 | –
14 | CC(C(=O)C(=O)NCc1cccc(Cl)c1)N(C=O)CC(C)(C)C (stereo not shown) [FP 23, N-[(3-Chlorophenyl)methyl]-3-[N-(2,2-dimethylpropyl)formamido]-2-oxobutanamide] | < 1000 | < 1000 | –
15 | CC(C)C(C(=O)C(=O)NCC1CC1)N(C=O)CC(C)(C)C (stereo not shown) [FP 31, N-(Cyclopropylmethyl)-3-[N-(2,2-dimethylpropyl)formamido]-4-methyl-2-oxopentanamide] | < 1000 | 1000 to 10000 | –
16 | CC(C(=O)C(=O)NCC(F)(F)F)N(C=O)C1CCCCC1 (stereo not shown) [FP 110, 3-(N-Cyclohexylformamido)-2-oxo-N-(2,2,2-trifluoroethyl)butanamide] | < 1000 | 1000 to 10000 | –
17 | CC(C)CNC(=O)C(=O)C(C)N(C=O)CC(C)(C)C (stereo not shown) [FP 45, 3-[N-(2,2-Dimethylpropyl)formamido]-N-(2-methylpropyl)-2-oxobutanamide] | < 1000 | < 1000 | –
18 | CCNC(=O)C(=O)C1CCC(=O)N1Cc1ccc(C)s1 (stereo not shown) [FP 278, N-Ethyl-2-{1-[(5-methylthiophen-2-yl)methyl]-5-oxopyrrolidin-2-yl}-2-oxoacetamide] | < 1000 | 1000 to 10000 | –
19 | CC(C(=O)C(=O)NCC1CC1)N(C)C(=O)c1ccccc1 (stereo not shown) [FP 149, N-(Cyclopropylmethyl)-3-(N-methyl-1-phenylformamido)-2-oxobutanamide] | < 1000 | 1000 to 10000 | –

Row | SMILES | IC50 (PLA2G16) [nM] | EC50 ([1]; Enterovirus B, HeLa H1, 48 h) [nM] | EC50 [1] [nM]
20 | CNC(=O)C(=O)[C@H]1CCC(=O)N1Cc1ccc(Cl)cc1 [FP 283, 2-[(2R)-1-[(4-Chlorophenyl)methyl]-5-oxopyrrolidin-2-yl]-N-methyl-2-oxoacetamide] | < 1000 | 1000 to 10000 | –
21 | O=CN(CC1CCOCC1)C(CCc1ccccc1)C(=O)C(=O)NCC1CC1 (stereo not shown) [FP 68, N-(Cyclopropylmethyl)-3-{N-[(oxan-4-yl)methyl]formamido}-2-oxo-5-phenylpentanamide] | < 1000 | < 1000 | –
22 | CC(C)CC(C(=O)C(=O)NCC1CC1)N(C=O)C[C@@H]1CCOC1 (stereo partly drawn) [FP 64, N-(Cyclopropylmethyl)-5-methyl-2-oxo-3-(N{[(3S)-oxolan-3-yl]methyl}formamido) hexanamide] | < 1000 | 1000 to 10000 | –
23 | CC(C(=O)C(=O)NCC1CC1)N(Cc1ccccc1)S(C)(=O)=O (stereo not shown) [FP 222, 3-(N-Benzylmethanesulfonamido)-N-(cyclopropylmethyl)-2-oxobutanamide] | < 1000 | > 10000 | –
24 | CC(C(=O)C(=O)NC1CC1)N(C=O)Cc1ccccc1 (stereo not shown) [FP 44, 3-(N-Benzylformamido)-N-cyclopropyl-2-oxobutanamide] | < 1000 | 1000 to 10000 | –
25 | CC(C(=O)C(=O)NCC(F)F)N(C=O)C1CCCCC1 (stereo not shown) [FP 111, 3-(N-Cyclohexylformamido)-N-(2,2-difluoroethyl)-2-oxobutanamide] | < 1000 | > 10000 | –
26 | COc1ccc(CNC(=O)C(=O)C(C)N(C=O)c2ccccc2OC)cc1 (stereo not shown) [FP 92, 3-[N-(2-Methoxyphenyl)formamido]-N-[(4-methoxyphenyl)methyl]-2-oxobutanamide] | < 1000 | 1000 to 10000 | –
27 | Cc1ccccc1C(=O)N[C@@H](C)C(=O)C(=O)NCC1CC1 (single isomer, unassigned) [FP 157] | < 1000 | 1000 to 10000 | –
28 | CC(C)NC(=O)C(=O)[C@H]1CCC(=O)N1Cc1ccccc1 [FP 238, 2-[(2R)-1-Benzyl-5-oxopyrrolidin-2-yl]-2-oxo-N-(propan-2-yl)acetamide] | < 1000 | < 1000 | –
29 | O=C(NC1CC1)C(=O)[C@H]1CCC(=O)N1Cc1ccc(Cl)cc1 [FP 284, 2-[(2R)-1-[(4-Chlorophenyl)methyl]-5-oxopyrrolidin-2-yl]-N-cyclopropyl-2-oxoacetamide] | < 1000 | < 1000 | –
30 | CC(NC(=O)c1cccc(Cl)c1)C(=O)C(=O)NCC1CC1 (stereo not shown) [FP 172, 3-[(3-Chlorophenyl)formamido]-N-(cyclopropylmethyl)-2-oxobutanamide] | < 1000 | 1000 to 10000 | –
31 | CC(C(=O)C(=O)NCC1CCCCC1)N(C(=O)CNS(C)(=O)=O)C1CCCCC1 (stereo not shown) [FP 162, 3-(N-Cyclohexyl-2-methanesulfonamidoacetamido)-N-(cyclohexylmethyl)-2-oxobutanamide] | 10000 to 50000 | > 10000 | –
32 | CC(OC1CCCCC1)C(=O)C(=O)NCC1CCC1 (stereo not shown) [FP 126, N-(Cyclobutylmethyl)-3-(cyclohexyloxy)-2-oxobutanamide] | < 1000 | < 1000 | –
33 | CCNC(=O)C(=O)[C@H]1CCC(=O)N1Cc1ccccc1 [FP 265, 2-[(2R)-1-Benzyl-5-oxopyrrolidin-2-yl]-N-ethyl-2-oxoacetamide] | < 1000 | < 1000 | –
34 | CC(NC(=O)Cc1ccccc1)C(=O)C(=O)NCC1CC1 (stereo not shown) [FP 167, N-(Cyclopropylmethyl)-2-oxo-3-(2-phenylacetamido)butanamide] | < 1000 | > 10000 | –
35 | CC(C)CC(C(=O)C(N)=O)N(C=O)Cc1ccccc1 (stereo not shown) [FP 199, 3-(N-Benzylformamido)-5-methyl-2-oxohexanamide] | < 1000 | > 10000 | –
36 | CCCC(NC(=O)c1ccccc1)C(=O)C(=O)NC1CC1 (stereo not shown) [FP 184, N-Cyclopropyl-2-oxo-3-(phenylformamido)hexanamide] | < 1000 | > 10000 | –
37 | COc1ccccc1S(=O)(=O)NC(C)C(=O)C(=O)NCC1CC1 (stereo not shown) [FP 220, N-(Cyclopropylmethyl)-3-(2-methoxybenzenesulfonamido)-2-oxobutanamide] | < 1000 | 1000 to 10000 | –
38 | CCCC(NC(=O)CN(C)C)C(=O)C(=O)NCC1CCCCC1 (stereo not shown) [FP 207, N-(Cyclohexylmethyl)-3-[2-(dimethylamino)acetamido]-2-oxohexanamide] | < 1000 | 1000 to 10000 | –

Source: patent publication US11091428B2 (HAPLOGEN GMBH, priority 2016, dated 2021)
